Results as given in PubChem BioAssay (NCI).
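Step 1: Grow cells in 96-well plates. Step 2: Expose to compound for 48 hours at 5 concentrations. Step 3: Interpolate endpoints linearly; if unreached, use highest concentration. GI50 marks 50% less growth. TGI: total growth inhibition.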

Key:
Test in all cases: NCI anticancer screen, dose series, 48 h
SK-MEL-5 melanoma = system: SK-MEL-5 melanoma
OVCAR-3 ovarian = system: OVCAR-3 ovarian
IGROV1 ovarian = system: IGROV1 ovarian
HS 578T breast = system: HS 578T breast
HCT-15 colon = system: HCT-15 colon
SN12C renal = system: SN12C renal
LOX IMVI melanoma = system: LOX IMVI melanoma
A498 renal = system: A498 renal
MDA-MB-435 = system: MDA-MB-435
UACC-257 melanoma = system: UACC-257 melanoma
T-47D breast = system: T-47D breast
EKVX NSCLC = system: EKVX NSCLC
U251 CNS = system: U251 CNS
NCI/ADR-RES ovarian = system: NCI/ADR-RES ovarian
MALME-3M melanoma = system: MALME-3M melanoma
HOP-92 NSCLC = system: HOP-92 NSCLC
MDA-MB-231 breast = system: MDA-MB-231 breast
SW-620 colon = system: SW-620 colon
NCI-H460 lung = system: NCI-H460 lung
SK-MEL-2 melanoma = system: SK-MEL-2 melanoma
SF-295 CNS = system: SF-295 CNS
RPMI-8226 leukemia = system: RPMI-8226 leukemia
PC-3 prostate = system: PC-3 prostate
SNB-19 CNS = system: SNB-19 CNS
MDA-MB-468 breast = system: MDA-MB-468 breast
HOP-62 NSCLC = system: HOP-62 NSCLC
M14 melanoma = system: M14 melanoma
MCF7 breast = system: MCF7 breast
TK-10 renal = system: TK-10 renal
SF-268 CNS = system: SF-268 CNS
UO-31 renal = system: UO-31 renal
BT-549 breast = system: BT-549 breast
K-562 leukemia = system: K-562 leukemia
HL-60(TB) leukemia = system: HL-60(TB) leukemia
SK-MEL-28 melanoma = system: SK-MEL-28 melanoma
MOLT-4 leukemia = system: MOLT-4 leukemia
A549 NSCLC = system: A549 NSCLC
786-0 renal = system: 786-0 renal
SK-OV-3 ovarian = system: SK-OV-3 ovarian
RXF 393 renal = system: RXF 393 renal
UACC-62 melanoma = system: UACC-62 melanoma
HT29 colon = system: HT29 colon
DU-145 prostate = system: DU-145 prostate
COLO 205 colon = system: COLO 205 colon
SR leukemia = system: SR leukemia
CAKI-1 renal = system: CAKI-1 renal
NCI-H226 lung = system: NCI-H226 lung
OVCAR-8 ovarian = system: OVCAR-8 ovarian
ACHN renal = system: ACHN renal
KM12 colon = system: KM12 colon
SNB-75 CNS = system: SNB-75 CNS
OVCAR-5 ovarian = system: OVCAR-5 ovarian
NCI-H23 lung = system: NCI-H23 lung
HCC-2998 colon = system: HCC-2998 colon
SF-539 CNS = system: SF-539 CNS
OVCAR-4 ovarian = system: OVCAR-4 ovarian
NCI-H522 lung = system: NCI-H522 lung
CCRF-CEM leukemia = system: CCRF-CEM leukemia

Compound: OCc1[nH]nc2cc(Nc3ncc4ccc(Br)c(OC5CCC(O)CC5)c4n3)ccc12 (centres undefined)
- GI50 (SK-MEL-5 melanoma): 0.027 µM
- TGI (SK-MEL-5 melanoma): 0.428 µM
- GI50 (OVCAR-3 ovarian): 0.0256 µM
- TGI (OVCAR-3 ovarian): 0.171 µM
- GI50 (IGROV1 ovarian): 0.0326 µM
- TGI (IGROV1 ovarian): 1.19 µM
- GI50 (HS 578T breast): 0.0444 µM
- TGI (HS 578T breast): 1.85 µM
- GI50 (HCT-15 colon): 0.036 µM
- TGI (HCT-15 colon): 1.54 µM
- GI50 (SN12C renal): 0.035 µM
- TGI (SN12C renal): 20 µM
- GI50 (LOX IMVI melanoma): 0.0164 µM
- TGI (LOX IMVI melanoma): 0.0592 µM
- GI50 (A498 renal): 0.0495 µM
- TGI (A498 renal): 0.231 µM
- GI50 (MDA-MB-435): 0.0399 µM
- TGI (MDA-MB-435): 2.47 µM
- GI50 (UACC-257 melanoma): 0.234 µM
- TGI (UACC-257 melanoma): 9.78 µM
- GI50 (T-47D breast): 0.0411 µM
- TGI (T-47D breast): 0.904 µM
- GI50 (EKVX NSCLC): 0.0673 µM
- TGI (EKVX NSCLC): 0.414 µM
- GI50 (U251 CNS): 0.0391 µM
- TGI (U251 CNS): > 100 µM
- GI50 (NCI/ADR-RES ovarian): 0.226 µM
- TGI (NCI/ADR-RES ovarian): 12.2 µM
- GI50 (MALME-3M melanoma): 0.0882 µM
- TGI (MALME-3M melanoma): 0.517 µM
- GI50 (HOP-92 NSCLC): 0.0922 µM
- TGI (HOP-92 NSCLC): > 100 µM
- GI50 (MDA-MB-231 breast): 0.0301 µM
- TGI (MDA-MB-231 breast): 0.505 µM
- GI50 (SW-620 colon): 0.0257 µM
- TGI (SW-620 colon): 1.96 µM
- GI50 (NCI-H460 lung): 0.0474 µM
- TGI (NCI-H460 lung): 4.38 µM
- GI50 (SK-MEL-2 melanoma): 0.0476 µM
- TGI (SK-MEL-2 melanoma): 0.213 µM
- GI50 (SF-295 CNS): 0.0406 µM
- TGI (SF-295 CNS): 0.508 µM
- GI50 (RPMI-8226 leukemia): 0.276 µM
- TGI (RPMI-8226 leukemia): > 100 µM
- GI50 (PC-3 prostate): 0.0502 µM
- TGI (PC-3 prostate): > 100 µM
- GI50 (SNB-19 CNS): 0.0258 µM
- TGI (SNB-19 CNS): > 44.8 µM
- GI50 (MDA-MB-468 breast): 0.0301 µM
- TGI (MDA-MB-468 breast): 0.1 µM
- GI50 (HOP-62 NSCLC): 0.034 µM
- TGI (HOP-62 NSCLC): 22.8 µM
- GI50 (M14 melanoma): 0.045 µM
- TGI (M14 melanoma): 1.74 µM
- GI50 (MCF7 breast): 0.0199 µM
- TGI (MCF7 breast): 1.1 µM
- GI50 (TK-10 renal): 0.0787 µM
- TGI (TK-10 renal): 0.729 µM
- GI50 (SF-268 CNS): 0.0335 µM
- TGI (SF-268 CNS): 1.32 µM
- GI50 (UO-31 renal): 0.0288 µM
- TGI (UO-31 renal): 0.278 µM
- GI50 (BT-549 breast): 0.0274 µM
- TGI (BT-549 breast): 0.133 µM
- GI50 (K-562 leukemia): 0.0788 µM
- TGI (K-562 leukemia): > 100 µM
- GI50 (HL-60(TB) leukemia): 0.0147 µM
- TGI (HL-60(TB) leukemia): 0.105 µM
- GI50 (SK-MEL-28 melanoma): 0.0499 µM
- TGI (SK-MEL-28 melanoma): 0.963 µM
- GI50 (MOLT-4 leukemia): 0.0372 µM
- TGI (MOLT-4 leukemia): > 100 µM
- GI50 (A549 NSCLC): 0.157 µM
- TGI (A549 NSCLC): > 100 µM
- GI50 (786-0 renal): 0.0371 µM
- TGI (786-0 renal): 2.7 µM
- GI50 (SK-OV-3 ovarian): 0.376 µM
- TGI (SK-OV-3 ovarian): > 100 µM
- GI50 (RXF 393 renal): 0.0193 µM
- TGI (RXF 393 renal): 0.0467 µM
- GI50 (UACC-62 melanoma): 0.0359 µM
- TGI (UACC-62 melanoma): 0.379 µM
- GI50 (HT29 colon): 0.103 µM
- TGI (HT29 colon): 0.487 µM
- GI50 (DU-145 prostate): 0.0359 µM
- TGI (DU-145 prostate): > 100 µM
- GI50 (COLO 205 colon): 0.0317 µM
- TGI (COLO 205 colon): 0.145 µM
- TGI (SR leukemia): > 100 µM
- GI50 (CAKI-1 renal): 0.0212 µM
- TGI (CAKI-1 renal): 2.4 µM
- GI50 (NCI-H226 lung): 0.0164 µM
- TGI (NCI-H226 lung): 0.077 µM
- GI50 (OVCAR-8 ovarian): 0.0405 µM
- TGI (OVCAR-8 ovarian): > 71.9 µM
- GI50 (ACHN renal): 0.0231 µM
- GI50 (KM12 colon): 0.0347 µM
- TGI (KM12 colon): 0.358 µM
- GI50 (SNB-75 CNS): 0.0359 µM
- TGI (SNB-75 CNS): 0.296 µM
- GI50 (OVCAR-5 ovarian): 0.05 µM
- TGI (OVCAR-5 ovarian): 0.316 µM
- GI50 (NCI-H23 lung): 0.0402 µM
- TGI (NCI-H23 lung): 0.257 µM
- GI50 (HCC-2998 colon): 0.0512 µM
- TGI (HCC-2998 colon): 0.519 µM
- GI50 (SF-539 CNS): 0.0225 µM
- TGI (SF-539 CNS): 0.0696 µM
- GI50 (OVCAR-4 ovarian): 0.0442 µM
- TGI (OVCAR-4 ovarian): 1.76 µM
- GI50 (NCI-H522 lung): 0.202 µM
- TGI (NCI-H522 lung): 0.744 µM
- GI50 (CCRF-CEM leukemia): 0.0314 µM
- TGI (CCRF-CEM leukemia): > 100 µM
